Source: patent publication US20250288562A1, “Methods and Compositions for Treating Hidradenitis Suppurativa” (Regranion, LLC, priority 2022, published 2025)
“And” between values parts separate entries of the source, which are not always exact repeats. Identical values can stand only once. Like-named read-outs stand apart in the source and are kept apart here.

Experiments:
[1] = Plasma pharmacokinetics after a single oral dose in healthy male subjects; format: in vivo, human; conditions: single oral dose of 250 mg; for Cmax: male, human, po, 250 mg
Experimental: The skin accumulation found in this study was compared to plasma levels of Compound 1 determined in a previous study in healthy human volunteers. Six healthy male subjects were given a single oral dose of 250 mg Compound 1, and plasma samples were collected pre-dose and at 0.25, 0.5, 0.75, 1, 1.5, 2, 2.5, 3, 4, 6, 8, 10, 12, 18, 24, 30, 36, 48, 72 and 96 hours after dosing.

[2] = test system: subjects with moderate to severe hidradenitis suppurativa; assay: Placebo controlled clinical study of Compound 1 in hidradenitis suppurativa patients; format: in vivo, human
Experimental: A placebo controlled clinical study was conducted to assess the efficacy of Compound 1 in HS patients. The study design is summarized below.
Fifteen patients were entered into the study and randomly assigned to the Compound 1 arm (10 patients) or the placebo arm (5 patients). The study was open to male or female subjects aged 18 years or older with hidradenitis suppurativa with minimum 5 inflammatory nodules in at least 2 distinct anatomic areas. The study was conducted in Denmark.
The study duration was approximately 24 weeks, including a 4-week screening phase, a 16-week treatment phase, and a 4-week observational follow-up phase to assess for hidradenitis suppurativa relapse and flare.
The primary objective of the study was to evaluate the efficacy of Compound 1 in subjects with moderate to severe hidradenitis suppurativa. The secondary objectives were to (1) evaluate the efficacy of Compound 1 on other clinical disease activity parameters in subject with moderate to severe hidradenitis suppurativa and (2) to evaluate the safety of Compound 1 in subjects with moderate to severe hidradenitis suppurativa.
The primary efficacy endpoint of the study was the percentage of subjects achieving Hidradenitis Suppurativa Clinical Response 50 (HiSCR-50) score at Week 16. The secondary efficacy endpoints were: • (1) the percentage of subjects with Hidradenitis Suppurativa Physician's Global Assessment (HS-PGA) scores of clear or minimal at Weeks 2, 4, 8, 12, 14, 16, and 20; • (2) the percentage of subjects achieving HiSCR-50, HiSCR-75, and HISCR-90 at Weeks 2, 4, 8, 12, 14, 16, and 20; • (3) changes from baseline in the Dermatology Life Quality Index (DLQI) total score at Weeks 4, 8, 12, 16, and 20; • (4) changes from baseline in the Pain Numerical Ranging score at Weeks 4, 8, 12, 16, and 20; • (5) change and percent change from Baseline in lesion counts (abscess count, inflammatory nodule count, AN count, and draining tunnel count); • (6) change from baseline in skin biomarkers at Week 16; • (7) change from baseline in blood biomarkers at Weeks 4, 8, 12, and 16.
This was a 16-week treatment, randomized, double-blind, proof-of-concept study designed to assess the safety and efficacy of Compound 1 compared to placebo for use in future efficacy Phase 2 trials.
Eligible subjects completed an up-to 4-week screening phase and sequentially be randomized 2:1 to one of two cohorts, treatment cohort (n=10) or placebo-control cohort (n=5), in a 16-week treatment phase followed by a 4-week observational follow-up phase. In the 16-week treatment phase, subjects randomized to the treatment group receive 250 mg Compound 1 free base in the form of a tablet administered orally once daily. The 250 mg dose was selected based on the results of an earlier oncology trial conducted with doses in excess of 1000 mg/day as a safe minimal dose from which to conduct dose escalation if required. Subjects randomized to the placebo-control group receive placebo treatment once daily (microcrystalline cellulose, mannitol, crospovidone, Opadry II red, magnesium stearate, colloidal silicon dioxide).
HiSCR, HS-PGA, Pain-NRS, and DLQI were performed to assess efficacy. Safety was assessed with the vital signs, physical examination, clinical laboratory tests, ECG, and collection of AEs.

HSP-90 = conditions: read-out: IC50 for inhibition of HSP-90; cited from earlier work
[3] = Accumulation of Compound 1 in skin punch biopsies of HS patients; format: in vivo, human
Experimental: The accumulation of Compound 1 in the skin of human HS patients in the clinical study described in Example 1 was determined. […] FIG. 6 is a graph showing the concentrations of Compound 1 found in the biopsied tissues in subjects grouped according to their clinical response to Compound 1 therapy. The mean skin concentration following 16 weeks of treatment with Compound 1 was 7130 ng/mg, which is equivalent to 16.1 mM.

[4] = individual healthy male subjects
[5] = following 16 weeks of treatment, 250 mg orally once daily, skin punch biopsies

**Q.** What does the source list for CN(C)c1cc2c(cc1Sc1nc3c(N)nccc3n1CCNCC(C)(C)C)OCO2 [Compound 1]?
**A.** Cmax ([1]; read-out: Cmax, range over six subjects): 19.4 to 24.9 ng/mL; Cmax ([1]; six subjects, read-out: Cmax, median): 20.3 ng/mL; Cmax ([1]; six subjects, read-out: Cmax, median (molar)): 46 nM; AUClast [1, 4]: 51.64 ng·h/mL and 70.13 ng·h/mL and 36.82 ng·h/mL and 25.64 ng·h/mL and 45.08 ng·h/mL and 54.08 ng·h/mL; AUC∞ [1, 4]: 51.64 ng·h/mL and 85.79 ng·h/mL and 36.82 ng·h/mL and 25.64 ng·h/mL and 45.08 ng·h/mL and 54.08 ng·h/mL; likelihood of achieving HiSCR50 ([2]; beginning at 12 weeks and continuing to 16 weeks, 250 mg orally once daily, compared to control): substantially more likely to achieve HiSCR50; subjects achieving HiSCR75 ([2]; by 14 weeks, 250 mg orally once daily, no subjects in the control): 50%; subjects achieving HiSCR90 ([2]; by 16 weeks, 250 mg orally once daily, no subjects in the control): 30%; IHS4 at baseline ([2]; individual subjects of the Compound 1 arm, before treatment): 17 and 43 and 14 (2×) and 10 and 6 and 20 (2×) and 28 and 11; IHS4 at week 16 ([2]; individual subjects of the Compound 1 arm, 250 mg orally once daily for 16 weeks): 4 (2×) and 22 and 3 and 7 (2×) and 21 and 6 and 10 and 2; decrease in abscess/nodule (AN) count relative to baseline ([2]; week 16, 250 mg orally once daily, compared to control): substantially greater decrease in AN count; average decrease in HS-PGA compared to baseline ([2]; week 16, 250 mg orally once daily, control arm showed no change): 0.8; subjects showing a decrease in IHS4 score ([2]; week 16 versus baseline, Compound 1 arm (n=10)): Nine of the ten; IC50 (HSP-90): […]; accumulation in the skin relative to plasma ([3]; daily oral dosing at 250 mg, skin versus plasma of healthy volunteers): approximately 100,000 fold; mean skin concentration [3, 5]: 7130 ng/mg; mean skin concentration (molar equivalent) [3, 5]: 16.1 mM
